The results in this text go back to patent US9708326B2, “Inhibitors of bruton's tyrosine kinase” (Pharmacyclics LLC, priority 2013, dated 2017).

Type in all cases: biochemical
Common to all, as to details: one of the methods outlined in Example 11a, 11b and 11c

Experiment [1] addresses T1, BTK (Homo sapiens, UniProt Q06187).
T1 construct: N-terminal His6-tagged, recombinant, full-length, human BTK; His6 (N); made in house; host or cells: baculovirus / Sf21 insect cells
The experiment is described as follows: Inhibition of a panel of kinases: BTK in vitro kinase assay. As for the experimental part: (§1) Btk kinase activity is determined using a time-resolved fluorescence resonance energy transfer (TR-FRET) methodology. Measurements are performed in a reaction volume of 50 μL using 96-well assay plates. Kinase enzyme, inhibitor, ATP (at the Km for the kinase), and 1 μM peptide substrate (Biotin-AVLESEEELYSSARQ-NH2) are incubated in a reaction buffer composed of 20 mM Tris, 50 mM NaCl, MgCl2 (5-25 mM depending on the kinase), MnCl2 (0-10 mM), 1 mM DTT, 0.1 mM EDTA, 0.01% bovine serum albumin, 0.005% Tween-20, and 10% DMSO at pH 7.4 for one hour. The reaction is quenched by the addition of 1.2 equivalents of EDTA (relative to divalent cation) in 25 μL of 1× Lance buffer (Perkin-Elmer). Streptavidin-APC (Perkin-Elmer) and Eu-labeled p-Tyr100 antibody (Perkin-Elmer) in 1× Lance buffer are added in a 25 μL volume to give final concentrations of 100 nM and 2.5 nM, respectively, and the mixture is allowed to incubate for one hour. The TR-FRET signal is measured on a multimode plate reader with an excitation wavelength (λEx) of 330 nm and detection wavelengths (λEm) of 615 and 665 nm. Activity is determined by the ratio of the fluorescence at 665 nm to that at 615 nm. For each compound, enzyme activity is measured at various concentrations of compound. Negative control reactions are performed in the absence of inhibitor in replicates of six, and two no-enzyme controls are used to determine baseline fluorescence levels Inhibition constants, Ki(app), ware obtained using the program BatchKi (Kuzmic et al. (2000), Anal. Biochem. 286:45-50). IC50s are obtained according to the equation: IC50={Ki(app)/(1+[ATP]/Km^ATP)}+[E]total/2;
(§2) For all kinases, [ATP]=Km^ATP, [Btk]total=0.5 nM and [Lck]total=6 nM.
(§3) Kinase activity is measured in vitro using electrophoretic mobility shift assay. The kinase reactions are assembled in a total volume of 25 μL in 384 well plates. The reactions comprise: BTK enzyme (1 nM, N-terminal His6-tagged, recombinant, full-length, human BTK purified from baculovirus Sf21 insect cell system), inhibitor, ATP (16 μM, the apparent Km for the kinase), fluorescently labeled peptide substrate (1 μM, FAM-GEEPLYWSFPAKKK-NH2) in a reaction buffer composed of 100 mM HEPES, pH7.5, 5 mM MgCl2 1 mM DTT, 0.1% bovine serum albumin, 0.01% Triton X-100, and 1% DMSO. The reaction is incubated for one hour and is quenched by the addition of 45 μL of termination buffer (100 mM HEPES, pH7.5, 0.01% Triton X-100, 30 mM EDTA). The terminated reactions are analyzed using 12 channel LabChip® 3000 microfluidic detection instrument (Caliper Life Sciences). The enzymatic phosphorylation of the peptide results in a change in net charge, enabling electrophoretic separation of product from substrate peptide. As substrate and product peptides are separated, two peaks of fluorescence are observed. Change in the relative fluorescence intensity of the substrate and product peaks is the parameter measured, reflecting enzyme activity. In the presence of an inhibitor, the ratio between product and substrate is altered: the signal of the product decreases, while the signal of the substrate increases.
(§4) Activity in each sample is determined as the product to sum ratio (PSR): P/(S+P), where P is the peak height of the product peptide and S is the peak height of the substrate peptide. For each compound, enzyme activity is measured at various concentrations (12 concentrations of compound spaced by 3× dilution intervals). Negative control samples (0%-inhibition in the absence of inhibitor) and positive control samples (100%-inhibition, in the presence of 20 mM EDTA) are assembled in replicates of four and are used to calculate %-inhibition values for each inhibitor at each concentration. Percent inhibition (Pinh) is determined using following equation: […]

Experiment [2] concerns the target EGFR (Homo sapiens, UniProt P00533). The experiment is described as follows: Inhibition of a panel of kinases: EGFR in vitro kinase assay.
Experiment [3] has as its target LCK (Homo sapiens, UniProt P06239). Briefly: Inhibition of a panel of kinases: LCK in vitro kinase assay. As to the method:
as §1, §2, §3, §4

Structures are written as SMILES.

T1 sequence (Q06187 whole entry): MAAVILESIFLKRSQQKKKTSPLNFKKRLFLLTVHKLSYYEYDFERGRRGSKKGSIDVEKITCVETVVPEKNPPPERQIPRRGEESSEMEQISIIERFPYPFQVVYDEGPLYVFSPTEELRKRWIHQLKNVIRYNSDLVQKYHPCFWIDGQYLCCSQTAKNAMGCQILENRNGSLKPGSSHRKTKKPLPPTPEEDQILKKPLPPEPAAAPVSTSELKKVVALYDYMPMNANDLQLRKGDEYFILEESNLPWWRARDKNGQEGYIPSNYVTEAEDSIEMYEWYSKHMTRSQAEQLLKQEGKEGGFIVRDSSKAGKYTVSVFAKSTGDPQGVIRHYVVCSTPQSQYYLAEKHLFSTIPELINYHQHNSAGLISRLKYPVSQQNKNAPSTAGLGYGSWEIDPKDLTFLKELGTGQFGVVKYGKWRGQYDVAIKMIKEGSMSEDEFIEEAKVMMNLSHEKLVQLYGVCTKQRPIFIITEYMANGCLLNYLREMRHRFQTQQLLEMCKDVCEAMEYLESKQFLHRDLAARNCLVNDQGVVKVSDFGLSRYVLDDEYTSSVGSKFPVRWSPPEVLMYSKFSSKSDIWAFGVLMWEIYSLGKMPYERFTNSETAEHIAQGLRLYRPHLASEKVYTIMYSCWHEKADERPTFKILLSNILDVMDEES
LCK, sequence (P06239 whole entry, species assumed): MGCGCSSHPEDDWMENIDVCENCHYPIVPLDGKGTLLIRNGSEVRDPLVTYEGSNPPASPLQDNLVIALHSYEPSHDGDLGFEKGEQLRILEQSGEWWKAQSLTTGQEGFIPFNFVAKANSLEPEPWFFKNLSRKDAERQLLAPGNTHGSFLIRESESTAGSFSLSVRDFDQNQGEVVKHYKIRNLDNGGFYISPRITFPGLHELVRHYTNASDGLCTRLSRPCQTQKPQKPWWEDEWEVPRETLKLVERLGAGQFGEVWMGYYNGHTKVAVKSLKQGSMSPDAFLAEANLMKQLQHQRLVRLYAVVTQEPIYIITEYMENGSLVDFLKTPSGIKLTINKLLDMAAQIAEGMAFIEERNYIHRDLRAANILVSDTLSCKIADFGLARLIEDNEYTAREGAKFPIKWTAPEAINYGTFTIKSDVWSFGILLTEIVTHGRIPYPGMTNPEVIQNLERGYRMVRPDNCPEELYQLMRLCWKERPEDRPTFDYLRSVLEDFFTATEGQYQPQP
EGFR, sequence (P00533 25-1210, species assumed): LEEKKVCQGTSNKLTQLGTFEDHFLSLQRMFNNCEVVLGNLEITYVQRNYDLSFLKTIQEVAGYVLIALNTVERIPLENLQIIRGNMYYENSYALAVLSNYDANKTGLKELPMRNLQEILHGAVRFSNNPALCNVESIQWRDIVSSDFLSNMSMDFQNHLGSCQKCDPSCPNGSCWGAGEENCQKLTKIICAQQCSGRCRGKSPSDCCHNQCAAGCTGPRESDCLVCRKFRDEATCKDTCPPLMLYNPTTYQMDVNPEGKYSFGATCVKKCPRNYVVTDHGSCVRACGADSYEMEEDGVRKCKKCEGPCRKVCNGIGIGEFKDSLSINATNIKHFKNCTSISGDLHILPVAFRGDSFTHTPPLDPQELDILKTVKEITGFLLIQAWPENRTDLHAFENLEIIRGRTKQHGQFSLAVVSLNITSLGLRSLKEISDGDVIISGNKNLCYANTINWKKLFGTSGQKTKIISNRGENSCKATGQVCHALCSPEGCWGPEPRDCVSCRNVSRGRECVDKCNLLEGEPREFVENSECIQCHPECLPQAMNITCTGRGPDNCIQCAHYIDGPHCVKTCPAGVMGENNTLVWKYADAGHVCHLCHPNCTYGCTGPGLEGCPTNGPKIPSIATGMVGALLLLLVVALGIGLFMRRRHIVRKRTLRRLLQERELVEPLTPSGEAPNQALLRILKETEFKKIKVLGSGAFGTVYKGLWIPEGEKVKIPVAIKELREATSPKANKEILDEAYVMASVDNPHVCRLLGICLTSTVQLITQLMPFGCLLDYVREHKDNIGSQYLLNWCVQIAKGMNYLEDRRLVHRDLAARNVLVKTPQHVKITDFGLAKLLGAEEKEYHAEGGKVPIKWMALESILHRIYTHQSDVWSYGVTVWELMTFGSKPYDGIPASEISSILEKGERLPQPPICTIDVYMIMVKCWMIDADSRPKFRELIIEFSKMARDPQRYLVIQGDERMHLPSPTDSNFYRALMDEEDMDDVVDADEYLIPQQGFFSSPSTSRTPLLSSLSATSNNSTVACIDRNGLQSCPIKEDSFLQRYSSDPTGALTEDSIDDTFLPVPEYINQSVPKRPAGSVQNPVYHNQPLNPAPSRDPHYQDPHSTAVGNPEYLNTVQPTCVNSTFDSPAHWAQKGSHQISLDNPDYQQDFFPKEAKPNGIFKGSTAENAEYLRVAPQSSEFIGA

Usually IC50 stands for the concentration at which inhibition is half-maximal. Low readings indicate greater potency, high ones weaker potency. On to `COCCOc1ccc(Nc2ncc3[nH]c(=O)n(-c4cccc(NC(=O)/C=C/CN(C)C)c4)c3n2)cc1` [Compound 6, (E)-4-(dimethylamino)-N-(3-(2-(4-(2-methoxyethoxyl)phenylamino)-8-oxo-7H-purin-9(8H)-yl)phenyl)but-2-enamide], for which the IC50 was under 100 nM in experiment [1] and 1000 to 10000 nM in experiment [2].
For `C=CC(=O)N(C)c1cccc(-n2c(=O)[nH]c3cnc(Nc4ccc(OCCOC)cc4)nc32)c1` [Compound 13, N-(3-(2-(4-(2-methoxyethoxyl)phenylamino)-8-oxo-7H-purin-9(8H)-yl)phenyl)-N-methylacrylamide], the results for the IC50 in experiment [1], in experiment [2] and in experiment [3] were under 100 nM, 1000 to 10000 nM and 1000 to 10000 nM, respectively.
With `C=CC(=O)Nc1cccc(-n2c(=O)[nH]c3cnc(Nc4ccc(F)cc4)nc32)c1` [Compound 17, N-(3-(2-(4-fluorophenylamino)-8-oxo-7H-purin-9(8H)-yl)phenyl)acrylamide], the values for the IC50 in experiment [1], in experiment [2] and in experiment [3] were under 100 nM, 100 to 1000 nM and over 10000 nM, respectively.
On to `CN(C)C/C=C/C(=O)N1CC(n2c(=O)[nH]c3cnc(Nc4ccc(F)cc4)nc32)C1` [Compound 23, (E)-9-(1-(4-(dimethylamino)but-2-enoyl)azetidin-3-yl)-2-(4-fluorophenylamino)-7H-purin-8(9H)-one], for which the IC50 in experiment [1] was 100 to 1000 nM; in experiment [2] it was over 10000 nM.
For `CN(C)C/C=C/C(=O)N1CCC[C@@H](n2c(=O)[nH]c3cnc(Nc4ccc(F)cc4)nc32)C1` [Compound 29, (R,E)-9-(1-(4-(dimethylamino)but-2-enoyl)piperidin-3-yl)-2-(4-fluorophenylamino)-7H-purin-8(9H)-one], the IC50 in experiment [1] is 100 to 1000 nM; in experiment [2] it was 1000 to 10000 nM; in experiment [3], 1000 to 10000 nM.
For `CN(C)C/C=C/C(=O)N1CCC(n2c(=O)[nH]c3cnc(Nc4ccc(F)cc4)nc32)CC1` [Compound 35, (E)-9-(1-(4-(dimethylamino)but-2-enoyl)piperidin-4-yl)-2-(4-fluorophenylamino)-7H-purin-8(9H)-one], the IC50 in experiment [1] was 100 to 1000 nM; in experiment [2] it was over 10000 nM; in experiment [3] it was 1000 to 10000 nM.
Taken in the same sequence, the figures for `C=CC(=O)Nc1cccc(-n2c(=O)[nH]c3cnc(Nc4ccc(OCCOC)cc4)nc32)c1` [Compound 43, N-(3-(2-(4-(2-methoxyethoxyl)phenylamino)-8-oxo-7H-purin-9(8H)-yl)phenyl)acrylamide] were under 100 nM, 1000 to 10000 nM and over 10000 nM.
As for `CN(C)C/C=C/C(=O)Nc1cccc(-n2c(=O)[nH]c3cnc(Nc4ccc(F)cc4)nc32)c1` [Compound 48, (E)-4-(dimethylamino)-N-(3-(2-(4-fluorophenylamino)-8-oxo-7H-purin-9(8H)-yl)phenyl)but-2-enamide], the results for the IC50 in experiment [1], in experiment [2] and in experiment [3] were under 100 nM, 1000 to 10000 nM and 1000 to 10000 nM, respectively.
As for `C=CC(=O)Nc1cccc(-c2n[nH]c3cnc(Nc4ccc(OCCOC)cc4)nc23)c1` [Compound 54, N-(3-(5-(4-(2-methoxyethoxyl)phenylamino)-1H-pyrazolo[4,3-d]pyrimidin-3-yl)phenyl)acrylamide], the results for the IC50 in experiment [1], in experiment [2] and in experiment [3] were under 100 nM, 1000 to 10000 nM and 100 to 1000 nM, respectively.
Taken in the same sequence, the figures for `C=CC(=O)Nc1cccc(-c2c[nH]c3cnc(Nc4ccc(OCCOC)cc4)nc23)c1` [Compound 60, N-(3-(2-(4-(2-methoxyethoxyl)phenylamino)-5H-pyrrolo[3,2-d]pyrimidin-7-yl)phenyl)acrylamide] were 100 to 1000 nM, 1000 to 10000 nM and 1000 to 10000 nM.
